Experiments:
[1] = UV/Vis spectral properties (Cary-50 spectrophotometer); assay type: physicochemical; details: for UVA and UVB absorption properties compared to oxybenzone / absorption spectra, regions encompassed: acetonitrile; for UVA and UVB absorption properties compared to oxybenzone: 5 mM or 0.05 mM, FIG. 1; for absorption spectra, regions encompassed: 5 mM (N-Boc-Imine-6 also 0.05 mM), compared to oxybenzone, FIG. 3
Experimental: Imine-1, Imine-2, and Imine-3 were synthesized, purified, and isolated (see above). All three compounds were separately dissolved in acetonitrile to a final concentration of 5 mM (FIG. 1) or 0.05 mM (FIG. 1, inset) and analyzed by UV/Vis (Cary-50 Spectrophotomer). The spectral properties were compared to oxybenzone in acetonitrile.
Carbamate-1, first described in U.S. Pat. No. 5,490,980A, was synthesized, purified, and isolated (see above). Carbamate-1 was dissolved in acetonitrile to a final concentration of 0.05 mM and analyzed by UV/Vis (Cary-50 Spectrophotomer). The spectral properties were compared to oxybenzone in acetonitrile at a final concentration of 0.05 mM.
Imine-4, Imine-5, and N-Boc-Imine-6 were synthesized, purified, and isolated (see above). All three compounds were separately dissolved in acetonitrile to a final concentration of 5 mM (FIG. 3) and analyzed by UV/Vis (Cary-50 Spectrophotomer). N-Boc-Imine-6 was diluted in acetonitrile to a final concentration of 0.05 mM (FIG. 3, inset) and analyzed by UV/Vis. […] Spectral properties were compared to oxybenzone in acetonitrile at the same concentration.
To understand the solution stability of the Boc-protected imines in protic solvent, N-Boc-Imine-6 was prepared in ethanol in the presence of catalytic glacial acetic acid. Briefly, to a solution of oxybenzone (0.10 g, 0.438 mmol, 1 eq) and N-Boc-1,6-hexanediamine (0.094 g, 0.43 mmol, 1 eq) in ethanol (0.3 mL) was added catalytic glacial acetic acid (1 μL). The reaction mixture was agitated at 900 rpm at 70° C. for 16 hr and monitored by LCMS. […] The reaction was then diluted in ethanol to final concentration of 0.04 mM and analyzed by UV/Vis spectroscopy.
N-Boc-Imine-8 and Imine-8 was synthesized, purified, and isolated (see above). N-Boc-Imine-8 and Imine-8 were dissolved in ethanol to a final concentration of 0.032 mM and 8 mM, respectively (FIG. 6) and analyzed by UV/Vis. (Cary-50 Spectrophotomer). Spectral properties were compared to sulisobenzone in ethanol at similar concentration.
Imine-10 was first dissolved in methyl tert-butyl ether and then diluted in ethanol to a final concentration of 5 mM and 0.04 mM (FIG. 7) and analyzed by UV/Vis. (Cary-50 Spectrophotomer). Spectral properties were compared to oxybenzone at similar concentration.

[2] = Solution stability of Boc-protected imine in protic solvent (ethanol); assay type: physicochemical; details: 70° C., catalytic glacial acetic acid, LCMS and UV/Vis
Experimental: To understand the solution stability of the Boc-protected imines in protic solvent, N-Boc-Imine-6 was prepared in ethanol in the presence of catalytic glacial acetic acid. Briefly, to a solution of oxybenzone (0.10 g, 0.438 mmol, 1 eq) and N-Boc-1,6-hexanediamine (0.094 g, 0.43 mmol, 1 eq) in ethanol (0.3 mL) was added catalytic glacial acetic acid (1 μL). The reaction mixture was agitated at 900 rpm at 70° C. for 16 hr and monitored by LCMS. Full reaction of the starting material to a single product peak was observed by LCMS indicating completion. The reaction was then diluted in ethanol to final concentration of 0.04 mM and analyzed by UV/Vis spectroscopy. […] Additionally, the Boc-protecting group remained intact throughout the reaction and UV/Vis analysis.

Q: With `COc1ccc(/C(=N/c2ccccc2)c2ccccc2)c(O)c1` [Imine-2] as the compound, how does the “UVA and UVB absorption properties compared to oxybenzone” value [1] read?
A: improved both UVA-1, UVA-2, and UVB absorption properties

Q: With `COc1ccc(/C(=N/C(CCC(N)=O)C(=O)O)c2ccccc2)c(O)c1` (stereo not drawn) [Imine-5] as the compound, how does the “absorption spectra, regions encompassed” value [1] read?
A: encompassed the UVA-1, UVA-2, and UVB regions as well as the visible region of the spectrum (greater than 400 nm)

Q: Which “UVA and UVB absorption properties compared to oxybenzone” value [1] does the source give for `COc1ccc(/C(=N/O)c2ccccc2)c(O)c1` [Imine-3] here?
A: loss in the UVA blocking and reduction in UVB blocking

Q: For `COc1cc(O)c(/C(=N\CCCCCCN)c2ccccc2)cc1S(=O)(=O)O` [Imine-8], which “UVA and UVB absorption properties compared to sulisobenzone” value ([1]; ethanol, N-Boc-Imine-8 0.032 mM, Imine-8 8 mM, FIG. 6) is on record?
A: retained absorbance in the UVB region and extended absorbance into the UVA region

Q: With `COc1ccc(/C(=N/Cc2ccccc2)c2ccccc2)c(O)c1` [Imine-1] as the compound, how does the “UVA and UVB absorption properties compared to oxybenzone” value [1] read?
A: improved both UVA-1, UVA-2, and UVB absorption properties

Q: Which “absorption spectra, regions encompassed” value [1] does the source give for `COc1ccc(/C(=N/CCCCCCNC(=O)OC(C)(C)C)c2ccccc2)c(O)c1` [N-Boc-Imine-6] here?
A: encompassed the UVA-1, UVA-2, and UVB regions as well as the visible region of the spectrum (greater than 400 nm)

Q: And the “absorption, regions encompassed” value ([1]; ethanol, 0.04 mM, FIG. 4)?
A: encompasses the UVA and UVB regions as well as the visible region of the spectrum (greater than 400 nm)

Q: And the “solution stability without reversion to the starting ketone and amine” value [2]?
A: stable over 24 hours

Q: Which “shift of the absorbance spectra” value ([1]; data not shown) does the source give for `CCCCCCOC(=O)c1ccccc1/C(=N/CCCCCCN)c1cccc(N(CC)CC)c1O` [Imine-9] here?
A: red shift of the absorbance spectra, which extends to the visible region
